Reference: ChEMBL document CHEMBL3217491, “Design, synthesis and biological evaluation of imidazopyridine/pyrimidine-chalcone derivatives as potential anticancer agents” (2010)
Activity calls are given as the source filed them. No cut-off for these calls is given here.

What was measured:
T47D = experiment: Growth inhibition of human T47D cells after 48 hrs by SRB assay; assay type: functional
[1] = Growth inhibition of human OVCAR4 cells after 48 hrs by SRB assay; assay type: functional; details: OVCAR-4, 48 h
HT-29 = experiment: Growth inhibition of human HT-29 cells after 48 hrs by SRB assay; assay type: functional; details: HT-29, 48 h
MCF7 [2] = experiment: Induction of cell cycle arrestin human MCF7 cells assessed as downregulation of cyclin D1 protein expression at 4 uM by Western blot analysis; assay type: functional, cell-based
SNB-19 = experiment: Growth inhibition of human SNB19 cells after 48 hrs by SRB assay; assay type: functional; details: SNB-19, 48 h
K562 = experiment: Growth inhibition of human K562 cells after 48 hrs by SRB assay; assay type: functional; details: K562, 48 h
MCF7 [3] = experiment: Growth inhibition of human MCF7 cells assessed as cell viability at 4 uM after 24 hrs by MTT assay; assay type: functional, cell-based
SR = experiment: Growth inhibition of human SR cells after 48 hrs by SRB assay; assay type: functional
NCI-H522 = experiment: Growth inhibition of human NCI-H522 cells after 48 hrs by SRB assay; assay type: functional; details: NCI-H522, 48 h
ACHN = experiment: Growth inhibition of human ACHN cells after 48 hrs by SRB assay; assay type: functional
[4] = Growth inhibition of human SF295 cells after 48 hrs by SRB assay; assay type: functional; details: SF-295, 48 h
PC-3 = experiment: Growth inhibition of human PC3 cells after 48 hrs by SRB assay; assay type: functional; details: PC-3, 48 h
MDA-MB-231 = experiment: Growth inhibition of human MDA-MB-231 cells after 48 hrs by SRB assay; assay type: functional; details: MDA-MB-231, 48 h
MCF7 [5] = experiment: Induction of apoptosis in human MCF7 cells assessed as of p21 protein expression at 4 uM by Western blot analysis relative to control; assay type: functional, cell-based
NCI-H226 = experiment: Growth inhibition of human NCI-H226 cells after 48 hrs by SRB assay; assay type: functional; details: NCI-H226, 48 h
SK-MEL-2 = experiment: Growth inhibition of human SK-MEL-2 cells after 48 hrs by SRB assay; assay type: functional; details: SK-MEL-2, 48 h
DU-145 = experiment: Growth inhibition of human DU145 cells after 48 hrs by SRB assay; assay type: functional; details: DU-145, 48 h
SK-OV-3 = experiment: Growth inhibition of human SKOV3 cells after 48 hrs by SRB assay; assay type: functional; details: SK-OV-3, 48 h
HOP-62 = experiment: Growth inhibition of human HOP62 cells after 48 hrs by SRB assay; assay type: functional; details: HOP-62, 48 h
KM12 = experiment: Growth inhibition of human KM12 cells after 48 hrs by SRB assay; assay type: functional; details: KM12, 48 h
SNB-75 = experiment: Growth inhibition of human SNB75 cells after 48 hrs by SRB assay; assay type: functional; details: SNB-75, 48 h
MCF7 [6] = experiment: Induction of apoptosis in human MCF7 cells expressing P21 promoter -145/+8 with luciferase gene assessed as upregulation of p21 protein expression at 4 uM by Western blot analysis relative to control; assay type: functional, cell-based
NCI-H460 = experiment: Growth inhibition of human NCI-H460 cells after 48 hrs by SRB assay; assay type: functional; details: NCI-H460, 48 h
[7] = Growth inhibition of human UO31 cells after 48 hrs by SRB assay; assay type: functional; details: UO-31, 48 h
[8] = Growth inhibition of human HCT15 cells after 48 hrs by SRB assay; assay type: functional; details: HCT-15, 48 h
[9] = Growth inhibition of human UACC257 cells after 48 hrs by SRB assay; assay type: functional; details: UACC-257, 48 h
[10] = Growth inhibition of human MOLT4 cells after 48 hrs by SRB assay; assay type: functional; details: MOLT-4, 48 h
[11] = Growth inhibition of human OVCAR5 cells after 48 hrs by SRB assay; assay type: functional; details: OVCAR-5, 48 h
[12] = Growth inhibition of human EKVX cells after 48 hrs by SRB assay; assay type: functional
MDA-MB-435 = experiment: Growth inhibition of human MDA-MB-435 cells after 48 hrs by SRB assay; assay type: functional; details: MDA-MB-435, 48 h
786-0 = experiment: Growth inhibition of human 786-0 cells after 48 hrs by SRB assay; assay type: functional; details: 786-0, 48 h
RPMI-8226 = experiment: Growth inhibition of human RPMI8226 cells after 48 hrs by SRB assay; assay type: functional; details: RPMI-8226, 48 h
TK-10 = experiment: Growth inhibition of human TK10 cells after 48 hrs by SRB assay; assay type: functional; details: TK-10, 48 h
MCF7 [13] = experiment: Induction of cell cycle arrestin human MCF7 cells assessed as downregulation of CDK2 protein expression at 4 uM by Western blot analysis; assay type: functional, cell-based
HCT-116 = experiment: Growth inhibition of human HCT116 cells after 48 hrs by SRB assay; assay type: functional; details: HCT-116, 48 h
MCF7 [14] = experiment: Induction of apoptosis in human MCF7 cells assessed as upregulation of p27 protein expression at 4 uM by Western blot analysis relative to control; assay type: functional, cell-based
MCF7 [15] = experiment: Induction of cell cycle arrestin human MCF7 cells assessed as downregulation of cyclin E protein expression at 4 uM by Western blot analysis; assay type: functional, cell-based
MDA-MB-468 = experiment: Growth inhibition of human MDA-MB-468 cells after 48 hrs by SRB assay; assay type: functional; details: MDA-MB-468, 48 h
CAKI-1 = experiment: Growth inhibition of human Caki1 cells after 48 hrs by SRB assay; assay type: functional; details: CAKI-1, 48 h
[16] = Growth inhibition of human HCC2998 cells after 48 hrs by SRB assay; assay type: functional; details: HCC 2998, 48 h
IGROV-1 = experiment: Growth inhibition of human IGROV1 cells after 48 hrs by SRB assay; assay type: functional; details: IGROV-1, 48 h
Malme-3M = experiment: Growth inhibition of human MALME-3M cells after 48 hrs by SRB assay; assay type: functional
[17] = Growth inhibition of human OVCAR3 cells after 48 hrs by SRB assay; assay type: functional; details: OVCAR-3, 48 h
MCF7 [18] = experiment: Cell cycle arrest in human MCF7 cells assessed as accumulation at G0/G1 phase at 4 uM after 24 hrs by propidium iodide staining-based flow cytometry (reference value: 64.04%); assay type: functional
MCF7 [19] = experiment: Induction of apoptosis in human MCF7 cells assessed as decrease in procaspase 9 level at 4 uM by Western blot analysis relative to control; assay type: functional, cell-based
MCF7 [20] = experiment: Cell cycle arrest in human MCF7 cells assessed as accumulation at S phase at 4 uM after 24 hrs by propidium iodide staining-based flow cytometry (reference value: 20.17%); assay type: functional
NCI-H322M = experiment: Growth inhibition of human NCI-H322M cells after 48 hrs by SRB assay; assay type: functional
[21] = Growth inhibition of human BT549 cells after 48 hrs by SRB assay; assay type: functional; details: BT-549, 48 h
SN12C = experiment: Growth inhibition of human SN12C cells after 48 hrs by SRB assay; assay type: functional
MCF7 [22] = experiment: Induction of cell cycle arrestin human MCF7 cells assessed as downregulation of cyclin A protein expression at 4 uM by Western blot analysis; assay type: functional, cell-based

With `COc1ccc(C(=O)/C=C/c2c(C(F)(F)F)nc3ccccn23)cc1OC` the GI50 (T47D) was 1430 nM, the GI50 [1] was 2490 nM and the GI50 (HT-29) was 1480 nM. For the same compound, the inhibition (MCF7 [2]) was “Active”, the GI50 (SNB-19) was 1590 nM and the GI50 (K562) was 360 nM. For the same compound, the inhibition (MCF7 [3]) was “Active”, the GI50 (SR) was 440 nM and the GI50 (NCI-H522) was 5.73 µM. The GI50 (ACHN) was 2850 nM, the GI50 [4] was 3.15 µM and the GI50 (PC-3) was 2730 nM. The GI50 (MDA-MB-231) was 3.06 µM, the Activity (MCF7 [5]) was “inactive” and the GI50 (NCI-H226) was 4.55 µM. The GI50 (SK-MEL-2) was 1720 nM, the GI50 (DU-145) was 650 nM and the GI50 (SK-OV-3) was 2490 nM. For the same compound, the GI50 (HOP-62) was 3.01 µM, the GI50 (KM12) was 570 nM and the GI50 (SNB-75) was 2350 nM. For the same compound, the Activity (MCF7 [6]) was “Active”, the GI50 (NCI-H460) was 680 nM and the GI50 [7] was 1440 nM. It also gave a GI50 [8] of 1130 nM, a GI50 [9] of 620 nM and a GI50 [10] of 1030 nM. The GI50 [11] was 3.79 µM, the GI50 [12] was 3.74 µM and the GI50 (MDA-MB-435) was 2040 nM. For the same compound, the GI50 (786-0) was 2870 nM, the GI50 (RPMI-8226) was 290 nM and the GI50 (TK-10) was 3.78 µM. The inhibition (MCF7 [13]) was “Active”, the GI50 (HCT-116) was 840 nM and the Activity (MCF7 [14]) was “Active”. For the same compound, the inhibition (MCF7 [15]) was “Active”, the GI50 (MDA-MB-468) was 1900 nM and the GI50 (CAKI-1) was 2500 nM. The GI50 [16] was 480 nM, the GI50 (IGROV-1) was 440 nM and the GI50 (Malme-3M) was 6.69 µM. For the same compound, the GI50 [17] was 1980 nM, the Activity (MCF7 [18]) was 97.86% and the inhibition (MCF7 [19]) was “Active”. The Activity (MCF7 [20]) was 1.83%, the GI50 (NCI-H322M) was 3.15 µM and the GI50 [21] was 2590 nM. For the same compound, the GI50 (SN12C) was 1910 nM and the inhibition (MCF7 [22]) was “inactive”.
